# The source made the active and inactive calls.
# What was measured:
# HEK293 [1] = assay: cells; type: functional, cell-based; details: Homo sapiens
# [2] = target: T1, Nuclear receptor subfamily 0 group B member 1 (Homo sapiens, UniProt P51843); assay: Luminescence-based cell-based high throughput dose response assay for inhibitors of the orphan nuclear receptor subfamily 0, group B, member 1 (DAX1; NR0B1). [Related pubchem assays (depositor defined):AID504766, AID504790]; type: functional
# T1 sequence (P51843 whole entry): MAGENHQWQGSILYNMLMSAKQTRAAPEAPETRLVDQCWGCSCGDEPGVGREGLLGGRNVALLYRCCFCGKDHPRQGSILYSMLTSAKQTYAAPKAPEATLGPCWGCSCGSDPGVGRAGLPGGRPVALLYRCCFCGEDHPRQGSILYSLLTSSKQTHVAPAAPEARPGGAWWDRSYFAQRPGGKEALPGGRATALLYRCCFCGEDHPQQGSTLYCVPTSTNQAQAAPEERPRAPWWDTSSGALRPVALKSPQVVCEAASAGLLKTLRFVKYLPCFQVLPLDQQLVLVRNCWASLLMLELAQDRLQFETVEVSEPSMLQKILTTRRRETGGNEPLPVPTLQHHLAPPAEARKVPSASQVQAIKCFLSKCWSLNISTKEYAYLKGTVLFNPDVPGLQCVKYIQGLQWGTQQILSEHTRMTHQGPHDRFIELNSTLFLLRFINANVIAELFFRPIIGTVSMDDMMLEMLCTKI
# [3] = target: Voltage-gated inwardly rectifying potassium channel KCNH2 (Homo sapiens, UniProt Q12809); details: Potency;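 note: confirmatory quantitative high-throughput screen measuring inhibition of hERG channel activity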
# [4] = Luminescent dose response cell-based high throughput screening assay for inhibitors of the Janus kinase 2 mutant JAK2V617F. [Related pubchem assays: 1446 (Primary screen.), 1521 (Confirmation assay.), 1486 (Counter screen.)]; type: functional
# BJ [5] = assay: cytotoxicity toward BJ-TERT fibroblasts, dose response, cell-based, RAS-independent, luminescence (AID 1933); type: functional; details: Homo sapiens
# BJ [6] = assay: cells; type: functional, cell-based; details: Homo sapiens
# [7] = inhibitors of intracellular T. cruzi replication, confirmation, NIH3T3 host cells, beta-gal luminescence (AID 2044); type: functional, cell-based;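 note: intracellular parasites grown in NIH/3T3 mouse fibroblasts as host cells; luminescent beta-galactosidase reporter signal from transgenic T. cruzi replicating inside host cells; inhibitors lower the luminescence signal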
# [8] = microbe, parasite or virus in culture; type: functional; details: Mycobacterium tuberculosis
# [9] = cytotoxicity toward NIH3T3 fibroblasts, dose response, counter-screen, cell-based, ATP luminescence, mouse fibroblasts (AID 2010); type: functional;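 note: cells exposed to compound for about 90 hours before reading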
# BJ [10] = assay: cytotoxicity toward BJ-TERT-LT-ST fibroblasts, dose response, cell-based, RAS-independent, luminescence (AID 1935); type: functional; details: Homo sapiens;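 note: BJ fibroblasts immortalized with TERT plus LT and ST oncogenes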
# [11] = cytotoxicity toward DRD oncogenic fibroblasts, dose response, cell-based, non-viral oncogenic, luminescence (AID 1934); type: functional; details: Homo sapiens
# [12] = HeLa cell cytotoxicity, dose response, cytotoxicity control for MgcRacGAP inhibitor project (AID 624300); type: functional
# [13] = target: T2, Rac GTPase-activating protein 1 (Homo sapiens, UniProt Q9H0H5); assay: MgcRacGAP GTPase-activating activity inhibitors, confirmation, biochemical, ADP Hunter fluorescence, primary and confirmatory (AID 624330); type: functional
# T2 sequence (Q9H0H5 whole entry): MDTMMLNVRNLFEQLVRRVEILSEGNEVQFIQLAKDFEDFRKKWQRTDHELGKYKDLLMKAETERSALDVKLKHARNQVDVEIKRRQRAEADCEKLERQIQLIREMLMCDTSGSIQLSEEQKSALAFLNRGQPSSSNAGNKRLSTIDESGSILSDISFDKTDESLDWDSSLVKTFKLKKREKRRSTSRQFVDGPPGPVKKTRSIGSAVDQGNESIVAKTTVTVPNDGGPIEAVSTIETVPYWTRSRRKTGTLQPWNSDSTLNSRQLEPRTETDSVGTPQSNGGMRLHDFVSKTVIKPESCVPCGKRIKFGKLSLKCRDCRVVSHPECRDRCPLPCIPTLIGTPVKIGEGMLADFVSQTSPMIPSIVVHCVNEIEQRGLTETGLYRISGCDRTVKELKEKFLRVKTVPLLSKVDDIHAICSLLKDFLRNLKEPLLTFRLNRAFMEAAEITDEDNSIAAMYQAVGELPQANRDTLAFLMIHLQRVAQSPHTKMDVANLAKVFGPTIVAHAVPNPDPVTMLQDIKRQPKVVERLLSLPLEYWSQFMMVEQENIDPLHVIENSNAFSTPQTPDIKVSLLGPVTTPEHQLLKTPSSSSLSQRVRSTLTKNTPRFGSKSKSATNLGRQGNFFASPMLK
# [14] = target: T3, DNA repair protein RAD52 homolog (Homo sapiens, UniProt P43351); type: functional, biochemical
# T3 sequence (P43351 whole entry): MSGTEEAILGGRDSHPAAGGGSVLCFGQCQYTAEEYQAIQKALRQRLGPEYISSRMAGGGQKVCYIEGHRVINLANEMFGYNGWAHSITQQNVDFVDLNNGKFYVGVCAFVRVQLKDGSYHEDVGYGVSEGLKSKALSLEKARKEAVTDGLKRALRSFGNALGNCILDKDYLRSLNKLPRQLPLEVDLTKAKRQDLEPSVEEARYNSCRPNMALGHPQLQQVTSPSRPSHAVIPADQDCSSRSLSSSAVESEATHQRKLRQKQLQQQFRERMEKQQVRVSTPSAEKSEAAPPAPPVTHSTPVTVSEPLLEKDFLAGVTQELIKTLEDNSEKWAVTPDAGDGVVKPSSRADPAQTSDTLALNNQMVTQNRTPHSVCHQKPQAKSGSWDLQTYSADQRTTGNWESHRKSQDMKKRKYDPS
# HEK293 [15] = assay: cells; details: Homo sapiens
# HEK293 [16] = assay: cells; details: Homo sapiens; remark: listed apart in the source
# Hexokinase-1 [17] = target: T4, Hexokinase-1 (Homo sapiens, UniProt P19367); assay: SAR analysis of small molecule inhibitors of hexokinase domain containing I (HKDC1) in the hexokinase 1 selectivity assay. [Related pubchem assays (depositor defined):AID493160, AID493190]; type: functional
# T4 sequence (P19367 whole entry): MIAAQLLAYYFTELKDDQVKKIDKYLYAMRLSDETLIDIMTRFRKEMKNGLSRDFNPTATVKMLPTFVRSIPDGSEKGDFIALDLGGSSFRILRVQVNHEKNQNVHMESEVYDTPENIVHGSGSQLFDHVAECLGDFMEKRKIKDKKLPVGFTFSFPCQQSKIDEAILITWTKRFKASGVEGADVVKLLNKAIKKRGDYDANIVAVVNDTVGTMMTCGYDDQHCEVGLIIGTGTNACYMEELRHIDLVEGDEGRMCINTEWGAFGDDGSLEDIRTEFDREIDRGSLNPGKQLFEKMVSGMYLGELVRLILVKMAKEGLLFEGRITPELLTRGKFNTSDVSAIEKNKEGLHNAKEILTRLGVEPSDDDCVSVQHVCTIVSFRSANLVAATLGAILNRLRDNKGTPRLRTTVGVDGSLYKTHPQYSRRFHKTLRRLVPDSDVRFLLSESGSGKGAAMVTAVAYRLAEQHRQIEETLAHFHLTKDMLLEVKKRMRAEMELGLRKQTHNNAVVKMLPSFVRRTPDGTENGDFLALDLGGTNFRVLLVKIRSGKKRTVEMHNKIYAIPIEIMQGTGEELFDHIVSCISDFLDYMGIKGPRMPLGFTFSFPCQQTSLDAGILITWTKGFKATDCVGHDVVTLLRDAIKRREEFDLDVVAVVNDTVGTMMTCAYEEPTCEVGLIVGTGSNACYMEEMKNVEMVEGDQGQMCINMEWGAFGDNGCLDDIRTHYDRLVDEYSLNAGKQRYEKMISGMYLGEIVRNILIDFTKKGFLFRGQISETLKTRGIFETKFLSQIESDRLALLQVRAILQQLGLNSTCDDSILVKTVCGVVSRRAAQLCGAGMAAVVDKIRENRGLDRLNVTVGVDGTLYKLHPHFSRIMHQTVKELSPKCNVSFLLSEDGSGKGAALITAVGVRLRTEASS
# Hexokinase HKDC1 [18] = target: T5, Hexokinase HKDC1 (Homo sapiens, UniProt Q2TB90); assay: SAR analysis of small molecule inhibitors of hexokinase domain containing I (HKDC1). [Related pubchem assays (depositor defined):AID493160, AID493190]; type: functional
# T5 sequence (Q2TB90 whole entry): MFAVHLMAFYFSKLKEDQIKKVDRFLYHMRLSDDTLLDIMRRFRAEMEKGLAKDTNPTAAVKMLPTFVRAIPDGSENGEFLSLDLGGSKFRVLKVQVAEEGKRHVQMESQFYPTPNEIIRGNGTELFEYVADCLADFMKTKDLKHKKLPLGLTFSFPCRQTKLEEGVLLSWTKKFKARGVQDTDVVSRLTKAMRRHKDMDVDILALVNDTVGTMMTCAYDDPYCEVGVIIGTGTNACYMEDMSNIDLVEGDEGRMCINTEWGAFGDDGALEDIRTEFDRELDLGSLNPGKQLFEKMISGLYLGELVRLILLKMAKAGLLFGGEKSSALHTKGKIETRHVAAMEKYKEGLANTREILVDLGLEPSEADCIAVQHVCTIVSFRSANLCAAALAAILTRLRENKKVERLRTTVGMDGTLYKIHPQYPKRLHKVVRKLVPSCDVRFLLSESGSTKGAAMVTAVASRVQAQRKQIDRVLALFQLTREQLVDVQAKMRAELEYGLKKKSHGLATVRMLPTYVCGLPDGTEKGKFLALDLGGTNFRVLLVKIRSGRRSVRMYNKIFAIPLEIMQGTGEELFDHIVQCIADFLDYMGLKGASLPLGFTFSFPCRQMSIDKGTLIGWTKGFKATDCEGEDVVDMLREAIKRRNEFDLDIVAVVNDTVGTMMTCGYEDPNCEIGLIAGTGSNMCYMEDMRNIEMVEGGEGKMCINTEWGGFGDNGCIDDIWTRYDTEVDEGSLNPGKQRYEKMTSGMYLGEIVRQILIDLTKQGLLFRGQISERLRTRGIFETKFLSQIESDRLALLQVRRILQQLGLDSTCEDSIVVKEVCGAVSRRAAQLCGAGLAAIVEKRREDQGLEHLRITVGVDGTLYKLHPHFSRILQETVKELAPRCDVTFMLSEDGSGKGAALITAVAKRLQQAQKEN
# [19] = target: Glycogen synthase kinase-3 alpha (Homo sapiens, UniProt P49840); assay: Inhibition of Human GSK-3 alpha Activity Measured in Biochemical System Using Microfluidics - 2063-06_Inhibitor_Dose_DryPowder_Activity. [Related pubchem assays (depositor defined):AID2709]
# [20] = target: Glycogen synthase kinase-3 beta (Homo sapiens, UniProt P49841); assay: Inhibition of Human GSK-3 beta Activity Measured in Biochemical System Using Microfluidics - 2063-05_Inhibitor_Dose_DryPowder_Activity. [Related pubchem assays (depositor defined):AID2709]
# Hexokinase-1 [21] = target: T4, Hexokinase-1; assay: HK1 enzyme inhibition by HKDC1 hits, SAR follow-up, selectivity assay for HKDC1 inhibitor project, biochemical, set 2, resazurin fluorescence coupled readout (AID 588356); type: functional
# Hexokinase HKDC1 [22] = target: T5, Hexokinase HKDC1; assay: HKDC1 hexokinase inhibitors, SAR follow-up, biochemical, set 2 (AID 588355); type: functional
# [23] = system: Streptococcus sp. 'group A'; assay: growth inhibition of control SK(-) GAS strain, dose response, counter-screen for streptokinase expression inhibitor project, luminescence, kanamycin, BacTiterGlo, confirmation (AID 1900); type: functional, organism-based
# Streptococcus = assay: Group A Streptococcus viability loss, dose response, counter-screen for streptokinase expression inhibitor project, luminescence, BacTiterGlo (AID 1915); type: functional, organism-based;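 note: potency for reduction of bacterial viability or growth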
# Escherichia coli = assay: microbe, parasite or virus in culture
# Chain of Voltage-gated inwardly rectifying potassium channel KCNH2 (Q12809 whole entry): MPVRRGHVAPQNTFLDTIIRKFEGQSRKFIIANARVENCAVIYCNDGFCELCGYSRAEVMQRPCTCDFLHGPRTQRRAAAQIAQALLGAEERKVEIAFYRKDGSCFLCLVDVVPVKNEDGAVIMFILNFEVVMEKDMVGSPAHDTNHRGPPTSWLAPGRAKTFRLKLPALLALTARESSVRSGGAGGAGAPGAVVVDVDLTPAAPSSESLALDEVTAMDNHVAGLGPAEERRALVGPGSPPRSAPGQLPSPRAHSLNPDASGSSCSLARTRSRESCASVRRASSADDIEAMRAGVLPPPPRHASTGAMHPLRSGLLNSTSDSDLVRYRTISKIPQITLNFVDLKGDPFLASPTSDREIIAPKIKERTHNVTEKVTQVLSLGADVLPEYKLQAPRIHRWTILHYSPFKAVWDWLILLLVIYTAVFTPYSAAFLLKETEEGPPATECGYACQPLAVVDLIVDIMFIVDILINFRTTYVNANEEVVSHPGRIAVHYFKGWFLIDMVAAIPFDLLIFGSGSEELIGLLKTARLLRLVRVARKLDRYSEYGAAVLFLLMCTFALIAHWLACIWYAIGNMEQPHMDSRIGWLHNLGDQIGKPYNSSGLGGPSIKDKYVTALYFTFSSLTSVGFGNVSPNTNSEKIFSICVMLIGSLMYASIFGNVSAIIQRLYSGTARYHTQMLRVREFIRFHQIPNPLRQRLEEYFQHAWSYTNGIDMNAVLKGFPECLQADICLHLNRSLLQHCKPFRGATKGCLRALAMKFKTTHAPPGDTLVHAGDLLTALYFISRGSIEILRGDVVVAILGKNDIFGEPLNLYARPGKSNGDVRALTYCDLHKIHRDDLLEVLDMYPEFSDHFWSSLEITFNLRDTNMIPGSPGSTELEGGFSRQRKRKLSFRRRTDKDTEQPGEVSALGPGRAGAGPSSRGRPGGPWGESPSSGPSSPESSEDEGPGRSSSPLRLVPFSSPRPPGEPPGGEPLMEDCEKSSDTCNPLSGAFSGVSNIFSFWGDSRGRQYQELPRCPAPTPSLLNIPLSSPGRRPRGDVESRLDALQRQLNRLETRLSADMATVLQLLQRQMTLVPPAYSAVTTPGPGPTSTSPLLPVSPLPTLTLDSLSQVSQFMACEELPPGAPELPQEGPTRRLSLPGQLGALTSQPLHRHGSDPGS
# Chain of Glycogen synthase kinase-3 beta (P49841 whole entry): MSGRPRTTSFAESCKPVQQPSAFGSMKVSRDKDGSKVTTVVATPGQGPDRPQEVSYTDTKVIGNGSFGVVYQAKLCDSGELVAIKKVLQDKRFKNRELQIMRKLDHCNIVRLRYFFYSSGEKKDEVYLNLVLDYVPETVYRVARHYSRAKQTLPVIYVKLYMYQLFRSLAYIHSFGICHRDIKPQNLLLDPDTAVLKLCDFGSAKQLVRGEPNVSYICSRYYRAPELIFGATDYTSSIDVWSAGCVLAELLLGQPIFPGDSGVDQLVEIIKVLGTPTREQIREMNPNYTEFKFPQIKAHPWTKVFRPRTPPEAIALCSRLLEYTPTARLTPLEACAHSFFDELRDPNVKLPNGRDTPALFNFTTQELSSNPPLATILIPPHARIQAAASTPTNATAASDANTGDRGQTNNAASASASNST
# Chain of Glycogen synthase kinase-3 alpha (P49840 whole entry): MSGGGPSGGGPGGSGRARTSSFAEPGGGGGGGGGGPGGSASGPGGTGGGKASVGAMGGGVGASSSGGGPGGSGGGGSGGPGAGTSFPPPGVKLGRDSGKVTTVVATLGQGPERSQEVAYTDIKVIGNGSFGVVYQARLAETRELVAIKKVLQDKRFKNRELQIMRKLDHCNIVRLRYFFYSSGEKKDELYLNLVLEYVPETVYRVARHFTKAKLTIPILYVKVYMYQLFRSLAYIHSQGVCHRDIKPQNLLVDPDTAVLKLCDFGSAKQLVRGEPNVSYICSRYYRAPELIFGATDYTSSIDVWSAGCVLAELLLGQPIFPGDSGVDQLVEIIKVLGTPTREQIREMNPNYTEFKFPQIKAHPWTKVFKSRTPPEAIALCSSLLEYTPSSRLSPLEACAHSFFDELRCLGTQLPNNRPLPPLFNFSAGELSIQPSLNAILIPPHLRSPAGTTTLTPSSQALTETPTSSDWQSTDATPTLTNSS
structure (smiles),measurement,setting,value
Cc1cc([N+](=O)[O-])nn1CCCC(=O)NC1CCCCC1,IC50,HEK293 [1],> 67.5 µM (inactive)
same,IC50,[2],> 67.5 µM (inactive)
CCCCCC/C(C=O)=C\c1ccccc1,AC50,[3],0.0501 µM (inconclusive)
Cc1cc2[nH]c3c(c[n+](C)c4ccccc34)c2cc1C,IC50,[4],0.639 µM (active)
same,EC50,BJ [5],3.9 µM (active)
same,EC50,BJ [6],5.11 µM (inconclusive)
same,EC50,[7],0.68 µM (active)
same,CC50,[8],2.06 µM (active)
same,EC50,[9],6.13 µM (active)
same,EC50,BJ [10],5.36 µM (inconclusive)
same,EC50,[11],5.3 µM (active)
same,CC50,[12],11.8 µM (active)
same,IC50,[13],36.2 µM (active)
same,AC50,[14],0.372 µM (active)
same,EC50,HEK293 [15],> 59.7 µM (inactive)
same,EC50,HEK293 [16],> 59.7 µM (inactive)
COc1cc2c(cc1OC)-c1cc(NCc3cccnc3)nc(=O)n1CC2,IC50,Hexokinase-1 [17],> 80 µM (inactive)
same,IC50,Hexokinase HKDC1 [18],> 80 µM (inactive)
CCCCOC(=O)C1C(C)=Nc2ncnn2C1c1cccc(OC)c1OC (stereo not given),AC50,[19],0.989 µM (active)
same,AC50,[20],0.538 µM (active)
CC(=O)NC1C(=O)N(Cc2ccccc2)c2ccc(C)cc21 (stereo not given),IC50,Hexokinase-1 [21],> 80 µM (inactive)
same,IC50,Hexokinase HKDC1 [22],> 80 µM (inactive)
CCN1CCN(c2cc3c(cc2F)c(=O)c(C(=O)O)cn3C2CC2)CC1 [ENROFLOXACIN],EC50,[23],1.22 µM (active)
same,EC50,Streptococcus,1.04 µM (active)
same,AC50,Escherichia coli,2.46 µM (active)
